Test results reported in patent US11759433B2, “Compositions and methods for regulating the endocannabinoid system” (Sytheon Ltd, priority 2019, dated 2023).
Like-named read-outs stand apart in the source and are kept apart here.

What was measured:
[1] = biological target: T1, Fatty Acid Binding Protein 5 (FABP5) (Homo sapiens, UniProt Q01469); assay: Fatty Acid Binding Protein 5 inhibitory activity (FABP-5 ELISA kit)
T1 construct: purchased Raybiotech 268-10276-1
Description: 0.1 gram of sample of each of the indicated Test Samples identified in Table 3 was dissolved in 1 mL DMSO and diluted with Diluent C from the FABP-5 ELISA Kit (Raybiotech #ELH-FABP5) to a make stock solution of 800 μg/ml. […] 50 μl of sample and 50 μl of 200 ng/ml of FABP-5 (Raybiotech #268-10276-1) was added per well for the analysis. The analysis was done following protocol of the aforementioned kit.

[2] = biological target: T2, Monoacyl Glycerol Lipase (MAGL) (Homo sapiens, UniProt Q99685); assay: Monoacyl Glycerol Lipase (MAGL) inhibitory activity; type: biochemical
T2 construct: purchased Cayman 10007812
T2 sequence (Q99685 1-303): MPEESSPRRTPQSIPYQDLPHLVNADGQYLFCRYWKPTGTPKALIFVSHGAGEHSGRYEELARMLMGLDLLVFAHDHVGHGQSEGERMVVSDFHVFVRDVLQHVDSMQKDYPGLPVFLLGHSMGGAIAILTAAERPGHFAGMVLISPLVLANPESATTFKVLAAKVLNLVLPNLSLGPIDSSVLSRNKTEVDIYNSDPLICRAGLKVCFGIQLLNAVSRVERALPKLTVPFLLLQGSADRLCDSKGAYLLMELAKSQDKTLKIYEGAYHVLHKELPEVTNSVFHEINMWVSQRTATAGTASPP
Description: A 0.1 gram of sample of each of the indicated Test Samples identified in Table 3 was dissolved in 1 mL DMSO to make stock solution. […] Final concentration in well: 10 μL of sample, 5.6 mU MAGL (Cayman cat. #10007812), and 23.6 μM 2Arachidonoyl Glycerol (Cayman cat. #62160). This study was done by following the protocol described by J L Blankman et al. (Blankmann et., A comprehensive profile of brain enzymes that hydrolyze the endocannabinoid 2-Arachidonyl glycerol, Chem & Biol, 14(12); 1347-1356, 2007).

Cortisol = Cortisol output in RHE-conditioned medium; type: cell-based, Human; settings: for Cortisol (% Control): 2 mg/cm^2 on RHE; for Cortisol (% Control) / Cortisol std MTT (% Control): 48 h; for Cortisol std MTT (% Control): standardised to MTT tissue viability
Description: (§1) A series of tests were conducted to assess the impact of the compositions according to the present teaching on the stress biomarkers cortisol and interleukin-8 8). The compounds and compositions to be evaluated were stored at room temperature prior to use and, for use, were solubilized in caprylic acid/caprylic triglycerides. The tests were conducted using reconstituted human epithelium-conditioned medium. Reconstituted Human Epidermis tissues were obtained from Zen-Bio (Research Triangle, NC; order #51500) and were stored o/n at 4° C. The following day the tissues were transferred to 6 well plates and allowed to equilibrate for 4 h in the medium provided by the manufacturer (ZenSkin RHE Assay Medium, lot #031620). Thereafter the medium was change with fresh medium and the Test Materials, as identified in Table 4, applied to the tissue samples in an amount of 2 mg/cm^2 with a positive displacement pipette and spread evenly on top of the tissues. The solvent was used as the negative control.
Cortisol—After 48 h of incubation, the cortisol output in the cell culture conditioned medium was measured with the Cortisol Parameter Assay Kit from RnD (Minneapolis, MN cat. #KGE008B), while tissue viability was assessed by the MTT technique, using the manufacturer's protocol and reagents.
(§2) In both studies the statistical significance was assessed with two-tail Student test. Deviations of ≥15% as compared to water control with p values below 0.05 were considered statistically significant.

IL-8 = IL-8 output in RHE-conditioned medium (sandwich ELISA); type: cell-based, Human; settings: for IL-8 (% Control): 2 mg/cm^2 on RHE; for Effect on level of IL-8, in words: tissue culture conditioned medium
Description: as §1
IL-8—Similarly, interleukin-8 (IL-8) output in the cell culture conditioned medium was measured by sandwich ELISA using antibody pair from Invitrogen (ThermoFisher, kit cat. #CHC1303) and antibody pair from BioLegend (cat. #501101 and #501201), respectively. All colorimetric measurements were performed using Molecular Devices microplate reader MAX190 and SoftMax3.1.2PRO software.
as §2

[3] = biological target: T3, Fatty Acid Amide Hydrolase (FAAH) (Homo sapiens, UniProt O00519); assay: FAAH inhibitor screening assay (Cayman kit); type: biochemical
T3 construct: purchased Cayman 10005196
T3 sequence (O00519 1-579): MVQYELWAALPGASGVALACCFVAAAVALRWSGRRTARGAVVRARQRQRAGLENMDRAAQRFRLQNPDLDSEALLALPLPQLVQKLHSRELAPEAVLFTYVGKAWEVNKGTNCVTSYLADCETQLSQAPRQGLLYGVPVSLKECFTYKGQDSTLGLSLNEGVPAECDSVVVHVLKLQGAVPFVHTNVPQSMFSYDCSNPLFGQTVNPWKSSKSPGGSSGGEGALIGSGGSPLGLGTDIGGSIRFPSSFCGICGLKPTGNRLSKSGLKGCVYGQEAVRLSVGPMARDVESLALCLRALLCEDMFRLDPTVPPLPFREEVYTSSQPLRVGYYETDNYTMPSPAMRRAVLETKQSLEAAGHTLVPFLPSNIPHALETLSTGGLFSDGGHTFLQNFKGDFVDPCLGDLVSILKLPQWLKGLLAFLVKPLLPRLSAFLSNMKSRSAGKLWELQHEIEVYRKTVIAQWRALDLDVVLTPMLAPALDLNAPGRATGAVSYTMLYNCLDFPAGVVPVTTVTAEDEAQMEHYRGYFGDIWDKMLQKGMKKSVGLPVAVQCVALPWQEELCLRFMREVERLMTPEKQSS
Description: A 0.01 gram of sample of each of the indicated Test Samples identified in Table 3 was dissolved in 1 mL DMSO to make stock solution. […] The analysis was done following FAAH inhibitor screening assay kit (Cayman cat #10005196) protocol.

[4] = read-out: MAGL IC50 (converted)
[5] = read-out: FAAH IC50 (converted)

T1 sequence (Q01469 whole entry): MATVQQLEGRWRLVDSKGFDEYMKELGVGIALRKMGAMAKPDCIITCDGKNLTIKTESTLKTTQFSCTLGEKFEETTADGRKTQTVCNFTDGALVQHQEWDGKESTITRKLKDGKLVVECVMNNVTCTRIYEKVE

SMILES	IC50 [1] [µM]	IC50 [2, 4] [µM]	Cortisol (% Control) (Cortisol; 0.1%)	Cortisol std MTT (% Control) (Cortisol; 0.1%)	Cortisol (% Control) (Cortisol; 0.25%)	Cortisol std MTT (% Control) (Cortisol; 0.25%)	Cortisol (% Control) (Cortisol; 0.5%)	Cortisol std MTT (% Control) (Cortisol; 0.5%)	IL-8 (% Control) (IL-8; 0.1%)	IL-8 (% Control) (IL-8; 0.25%)	IL-8 (% Control) (IL-8; 0.5%)	Effect on level of IL-8, in words (IL-8)	IC50 [3, 5] [µM]	IC50 [2] [µM]	Cortisol (% Control) (Cortisol; 1%)	Cortisol std MTT (% Control) (Cortisol; 1%)	Effect on level of cortisol, in words (Cortisol; higher levels)	Effect on level of cortisol, in words (Cortisol; low levels)	IL-8 (% Control) (IL-8; 1%)	IC50 ([3]; FAAH IC50) [µM]
C=C[C@@](C)(/C=C/c1ccc(O)cc1)CCC=C(C)C [Bakuchiol]	449	183	51	56	64	87	54	79	92	92	86	marginal effect in reducing	6.71							
C=C(C)[C@@H]1CCC(C)=C[C@H]1c1c(O)cc(CCCCC)cc1O [Cannabidiol 99, Cannabidiol]			72	82			84	95	103		107	no effect or marginally increased		13100	134	174	increased the cortisol level	modest decrease in cortisol	108	99.5
CCCCC/C=C\C/C=C\CCCCCCCC(=O)OCC [Ethyl Linoleate 98, Ethyl linoleate]													3.6							
CCCCC/C=C\C/C=C\CCCCCCCC(=O)OCC [Ethyl Linoleate (Synovea ® EL), Ethyl linoleate]	1490	7710											9.81							
